The values that follow come from patent US20130281397A1, “TREATMENT OF DISEASES BY EPIGENETIC REGULATION” (RVX Therapeutics Inc., priority 2012, published 2013).

Each structure is given as a SMILES string. Structures can show the parent of a compound that is named as a salt. Where only a bound is given, the exact number is not on record here.

The target of one series is T1, Brd4 bromodomain 1 (Homo sapiens, UniProt O60885).
T1 construct: made in house; host or cells: E. coli BL21(DE3)
As to the kind of experiment: Inhibition of binding of tetra-acetylated histone H4 and Brd4 bromodomain 1 by TR-FRET. To be noted: His-tagged bromodomain 200 nM, biotinylated tetra-acetylated histone H4 peptide 25-50 nM, 2 hours at room temperature. How it is done: Proteins were cloned and overexpressed with a N-terminal 6×His tag, then purified by nickel affinity followed by size exclusion chromatography. Briefly, E. coli BL21(DE3) cells were transformed with a recombinant expression vector encoding N-terminally […] tagged bromodomains from Brd2, Brd3, or Brd4. Cell cultures were incubated at 37° C. with shaking to the appropriate density and induced overnight with IPTG. The supernatant of lysed cells was loaded onto Ni-IDA column for purification. Eluted protein was pooled, concentrated and further purified by size exclusion chromatography. Fractions representing monomeric protein were pooled, concentrated, aliquoted, and frozen at −80° C. for use in subsequent experiments.
For inhibition assays, serially diluted test compound was added to these reactions in a 0.2% final concentration of DMSO. Final buffer concentrations were 30 mM HEPES pH 7.4, 30 mM NaCl, 0.3 mM CHAPS, 20 mM phosphate pH 7.0, 320 mM KF, 0.08% BSA). […] The binding inhibitory activity was shown by a decrease in 665 nm fluorescence relative to 620 nm. IC50 values were determined from a dose response curve.
Regarding `COc1cc(OC)c2c(=O)[nH]c(-c3cc(C)c(OCCNS(=O)(=O)c4ccc(Cl)cc4)c(C)c3)nc2c1` [Example 95, 4-chloro-N-(2-(4-(5,7-dimethoxy-4-oxo-3,4-dihydroquinazolin-2-yl)-2,6-dimethylphenoxy)ethyl)benzenesulfonamide], the “FRET activity (<50 uM)” value was “Inactive”. Regarding `CCCNC(=O)OCCOc1c(C)cc(-c2nc3cc(OC)cc(OC)c3c(=O)[nH]2)cc1C` [Example 99, 2-(4-(5,7-Dimethoxy-4-oxo-3,4-dihydroquinazolin-2-yl)-2,6-dimethyl-phenoxy)ethyl propylcarbamate], the “FRET activity (<50 uM)” value was “Active”. As to `CNC(=O)OCCOc1c(C)cc(-c2nc3cc(OC)cc(OC)c3c(=O)[nH]2)cc1C` [Example 100, 2-(4-(5,7-Dimethoxy-4-oxo-3,4-dihydroquinazolin-2-yl)-2,6-dimethyl-phenoxy)ethyl methylcarbamate], the “FRET activity (<50 uM)” value was “Active”. `COc1cc(OC)c2c(=O)[nH]c(-c3cc(C)c(OCCNC(=O)c4ccc(C)cc4)c(C)c3)nc2c1` [Example 101, N-(2-(4-(5,7-Dimethoxy-4-oxo-3,4-dihydroquinazolin-2-yl)-2,6-dimethylphenoxy)ethyl)-4-methylbenzamide]: the “FRET activity (<50 uM)” value is recorded as “Active”. Turning to `COc1cc(OC)c2c(=O)[nH]c(-c3cc(C)c(OCCOC(=O)NC4CCCCC4)c(C)c3)nc2c1` [Example 102, 2-(4-(5,7-dimethoxy-4-oxo-3,4-dihydroquinazolin-2-yl)-2,6-dimethylphenoxy)ethyl cyclohexylcarbamate], the “FRET activity (<50 uM)” value is listed as “Active”. With `COc1cc(OC)c2c(=O)[nH]c(-c3cc(C)c(OCCNS(=O)(=O)c4ccccc4)c(C)c3)nc2c1` [Example 103, N-(2-(4-(5,7-dimethoxy-4-oxo-3,4-dihydroquinazolin-2-yl)-2,6-dimethylphenoxy)ethyl)benzenesulfonamide], the “FRET activity (<50 uM)” value is given as “Inactive”.

For the compound `COc1cc(OC)c2c(=O)[nH]c(-c3cc(C)c(OCCNS(=O)(=O)c4ccc(C)cc4)c(C)c3)nc2c1` [Example 104, N-(2-(4-(5,7-dimethoxy-4-oxo-3,4-dihydroquinazolin-2-yl)-2,6-dimethylphenoxy)ethyl)-4-methylbenzenesulfonamide], the “FRET activity (<50 uM)” value is given as “Inactive”. On the same count and under the same terms, the entry for `COc1ccc(C(=O)NCCOc2c(C)cc(-c3nc4cc(OC)cc(OC)c4c(=O)[nH]3)cc2C)cc1` [Example 105, N-(2-(4-(5,7-dimethoxy-4-oxo-3,4-dihydroquinazolin-2-yl)-2,6-dimethylphenoxy)ethyl)-4-methoxybenzamide] is “Inactive”; for `COc1cc(OC)c2c(=O)[nH]c(-c3cc(C)c(OCCNC(C)=O)c(C)c3)nc2c1` [Example 106, N-(2-(4-(5,7-dimethoxy-4-oxo-3,4-dihydroquinazolin-2-yl)-2,6-dimethylphenoxy)ethyl)acetamide] it is “Active”.

Consider `COc1cc(OC)c2c(=O)[nH]c(-c3cc(C)c(OCCNC(=O)c4ccccc4)c(C)c3)nc2c1` [Example 107, N-(2-(4-(5,7-dimethoxy-4-oxo-3,4-dihydroquinazolin-2-yl)-2,6-dimethylphenoxy)ethyl)benzamide], for which the “FRET activity (<50 uM)” value is reported as “Active”.

On to `COc1cc(OC)c2c(=O)[nH]c(-c3cc(C)c(OCCNC(=O)C(C)C)c(C)c3)nc2c1` [Example 108, N-(2-(4-(5,7-dimethoxy-4-oxo-3,4-dihydroquinazolin-2-yl)-2,6-dimethylphenoxy)ethyl)isobutyramide], for which the “FRET activity (<50 uM)” value is recorded as “Active”. Consider `CNC(=O)NCCOc1c(C)cc(-c2nc3cc(OC)cc(OC)c3c(=O)[nH]2)cc1C` [Example 109, 1-(2-(4-(5,7-dimethoxy-4-oxo-3,4-dihydroquinazolin-2-yl)-2,6-dimethylphenoxy)ethyl)-3-methylurea], for which the “FRET activity (<50 uM)” value is recorded as “Active”. As for `COc1ccc(NC(=O)NCCOc2c(C)cc(-c3nc4cc(OC)cc(OC)c4c(=O)[nH]3)cc2C)cc1` [Example 110, 1-(2-(4-(5,7-dimethoxy-4-oxo-3,4-dihydroquinazolin-2-yl)-2,6-dimethylphenoxy)ethyl)-3-(4-methoxyphenyl)urea], the “FRET activity (<50 uM)” value is on record as “Inactive”. Regarding `COc1cc(OC)c2c(=O)[nH]c(-c3cc(C)c(OCCNC(=O)Nc4ccccc4)c(C)c3)nc2c1` [Example 111, 1-(2-(4-(5,7-dimethoxy-4-oxo-3,4-dihydroquinazolin-2-yl)-2,6-dimethylphenoxy)ethyl)-3-phenylurea], the “FRET activity (<50 uM)” value was “Active”. On the same count and under the same terms, in the case of `COc1cc(OC)c2c(=O)[nH]c(-c3cc(C)c(OCCNC(=O)N(C)C)c(C)c3)nc2c1` [Example 112, 3-(2-(4-(5,7-dimethoxy-4-oxo-3,4-dihydroquinazolin-2-yl)-2,6-dimethylphenoxy)ethyl)-1,1-dimethylurea] it was “Active”.

Test system in the next series: not given
Experiment: not given
Conditions: not given
Regarding `Cc1cc(-c2cc3ncccc3c(=O)[nH]2)cc(C)c1O` (as salt: HCl) [Example 5, 7-(4-hydroxy-3,5-dimethylphenyl)-1,6-naphthyridin-5(6H)-one], the melting point is greater than 350 °C. Compound `COc1cc(OC)c2c(=O)[nH]c(-c3cc(C)c(O)c(C)c3)cc2n1` (as salt: HCl) [Example 13, 7-(4-hydroxy-3,5-dimethylphenyl)-2,4-dimethoxy-1,6-naphthyridin-5(6H)-one] registered a melting point greater than 324 °C. Compound `COc1cc(OC)c2c(=O)[nH]c(-c3cc(C)c(OCCN(C)C)c(C)c3)cc2c1` (as salt: hydrochloride) [Example 7, 3-(4-(2-(dimethylamino)ethoxy)-3,5-dimethylphenyl)-6,8-dimethoxyisoquinolin-1(2H)-one] returned a melting point of 261 to 263 °C. On to `Cc1cc(-c2cc3ccc(CN4CCOCC4)cc3c(=O)[nH]2)cc(C)c1O` (as salt: hydrochloride) [Example 8, 3-(4-hydroxy-3,5-dimethylphenyl)-7-(morpholinomethyl)isoquinolin-1(2H)-one], for which the melting point is 281 to 283 °C. With `COc1cc(O)nc2cc(-c3cc(C)c(O)c(C)c3)[nH]c(=O)c12` (as salt: hydrochloride) [Example 9, 2-hydroxy-7-(4-hydroxy-3,5-dimethylphenyl)-4-methoxy-1,6-naphthyridin-5(6H)-one], the melting point was greater than 330 °C. For the compound `COc1cc(OC)c2c(=O)[nH]c(-c3cc(C)c(OCCN4CCOCC4)c(C)c3)nc2c1` (as salt: hydrochloride) [Example 17, 2-(3,5-dimethyl-4-(2-morpholinoethoxy)phenyl)-5,7-dimethoxyquinazolin-4(3H)-one], the melting point is 185 to 187 °C. On the same count and under the same terms, in the case of `COc1cc(OC)c2c(=O)[nH]c(-c3cc(C)c(OCCN4CCN(C)CC4)c(C)c3)cc2c1` (as salt: hydrochloride) [Example 18, 3-(3,5-dimethyl-4-(2-(4-methylpiperazin-1-yl)ethoxy)phenyl)-6,8-dimethoxyisoquinolin-1(2H)-one] it was 195 to 198 °C; in that of `COc1cc(OC)c2c(=O)[nH]c(-c3ccccn3)nc2c1` (as salt: hydrochloride) [Example 21, 5,7-dimethoxy-2-(pyridin-2-yl)quinazolin-4(3H)-one], 215 to 217 °C. In turn, `COc1cc(OC)c2c(=O)[nH]c(-c3cccnc3)nc2c1` (as salt: hydrochloride) [Example 22, 5,7-dimethoxy-2-(pyridin-3-yl)quinazolin-4(3H)-one] registered a melting point of 257 to 259 °C. `COc1cc(OC)c2c(=O)[nH]c(-c3ccncc3)nc2c1` (as salt: hydrochloride) [Example 28, 5,7-dimethoxy-2-(pyridin-4-yl)quinazolin-4(3H)-one] gave a melting point of 294 to 295 °C. On to `Cc1cc(-c2nc3ccccc3c(=O)[nH]2)cc(C)c1OCCN1CCOCC1` (as salt: hydrochloride) [Example 29, 2-(3,5-dimethyl-4-(2-morpholinoethoxy)phenyl)quinazolin-4(3H)-one], for which the melting point lay in the range of 300 to 302 °C. For the compound `COc1cc(OC)c2c(=O)[nH]c(-c3ccc(CN4CCN(C)CC4)cc3)nc2c1` (as salt: hydrochloride) [Example 54, 5,7-dimethoxy-2-(4-((4-methylpiperazin-1-yl)methyl)phenyl)quinazolin-4(3H)-one], the melting point lay in the range of 275 to 277 °C. For `Cc1cc(-c2nc3ccc(CN4CCOCC4)cc3c(=O)[nH]2)cc(C)c1O` (as salt: hydrochloride) [Example 57, 2-(4-hydroxy-3,5-dimethylphenyl)-6-(morpholinomethyl)quinazolin-4(3H)-one], the melting point fell in the range of 284 to 286 °C. With `COc1cc(OC)c2c(=O)[nH]c(-c3ccc(CN4CCOCC4)cc3)nc2c1` (as salt: hydrochloride) [Example 61, 5,7-dimethoxy-2-(4-(morpholinomethyl)phenyl)quinazolin-4(3H)-one], the melting point is 206 to 208 °C (dec.).

`CCN1CCN(Cc2ccc(-c3nc4cc(OC)cc(OC)c4c(=O)[nH]3)cc2)CC1` (as salt: hydrochloride) [Example 62, 2-(4-((4-ethylpiperazin-1-yl)methyl)phenyl)-5,7-dimethoxyquinazolin-4(3H)-one]: the melting point was 278 to 280 °C (dec.). The compound `COc1cc2cc(-c3cc(C)c(O)c(C)c3)n(C)c(=O)c2c(OC)c1C` [Example 14 (left), 3-(4-hydroxy-3,5-dimethylphenyl)-6,8-dimethoxy-2,7-dimethylisoquinolin-1(2H)-one] yielded a melting point of 246 to 248 °C.
